Results on 13 compounds are retold here after US5580871A, “4-Heteroaryl- 1,4-dihydropyridine compounds with calcium agonist and alpha1 -antagonist activity” (The Dupont Merck Pharmaceutical Company, priority 1995, dated 1996).

Molecules are shown by their SMILES.

The target of one assay is alpha1-adrenoceptor. The experiment in a line: [3H]-Prazosin binding assay (affinity for alpha1-adrenoceptors). The settings on record: partially purified rat brain membranes; 0.2 nM [3H]-prazosin, 60 min, 25° C. Here is the method: The [^3 H]-prazosin binding assay was carried out according to the method described by Timmermans, P. B. M. W. M., Schoop, A. M. C., and Van Zwieten, P. A., Biochem. Pharmacol., 31, 899-905, (1982). The reaction mixture contained partially purified rat brain membranes (source of alpha1 -adrenoceptors), 0.2 nM [^3 H]-prazosin with or without potential displacer in Tris buffer. The mixture was incubated for 60 minutes at 25° C. and subsequently terminated by rapid filtration through glass fiber-filter. Receptor-bound [^3 H]-prazosin trapped in the filter was quantitated by scintillation counting. The inhibitory concentration (IC50) of potential displacer which gives 50% displacement of the total specifically bound [^3 H]-prazosin is presented as a measure of the affinity of such compound for the alpha1 -adrenoceptor.

In another assay the target is T1, Ca^2+ channel (Rattus norvegicus, UniProt P22002).
T1 construct: rat cardiac microsomes (source of Ca^2+ channels); from tissue; host or cells: rat cardiac microsomes
T1 sequence (P22002 whole entry, other chains not shown): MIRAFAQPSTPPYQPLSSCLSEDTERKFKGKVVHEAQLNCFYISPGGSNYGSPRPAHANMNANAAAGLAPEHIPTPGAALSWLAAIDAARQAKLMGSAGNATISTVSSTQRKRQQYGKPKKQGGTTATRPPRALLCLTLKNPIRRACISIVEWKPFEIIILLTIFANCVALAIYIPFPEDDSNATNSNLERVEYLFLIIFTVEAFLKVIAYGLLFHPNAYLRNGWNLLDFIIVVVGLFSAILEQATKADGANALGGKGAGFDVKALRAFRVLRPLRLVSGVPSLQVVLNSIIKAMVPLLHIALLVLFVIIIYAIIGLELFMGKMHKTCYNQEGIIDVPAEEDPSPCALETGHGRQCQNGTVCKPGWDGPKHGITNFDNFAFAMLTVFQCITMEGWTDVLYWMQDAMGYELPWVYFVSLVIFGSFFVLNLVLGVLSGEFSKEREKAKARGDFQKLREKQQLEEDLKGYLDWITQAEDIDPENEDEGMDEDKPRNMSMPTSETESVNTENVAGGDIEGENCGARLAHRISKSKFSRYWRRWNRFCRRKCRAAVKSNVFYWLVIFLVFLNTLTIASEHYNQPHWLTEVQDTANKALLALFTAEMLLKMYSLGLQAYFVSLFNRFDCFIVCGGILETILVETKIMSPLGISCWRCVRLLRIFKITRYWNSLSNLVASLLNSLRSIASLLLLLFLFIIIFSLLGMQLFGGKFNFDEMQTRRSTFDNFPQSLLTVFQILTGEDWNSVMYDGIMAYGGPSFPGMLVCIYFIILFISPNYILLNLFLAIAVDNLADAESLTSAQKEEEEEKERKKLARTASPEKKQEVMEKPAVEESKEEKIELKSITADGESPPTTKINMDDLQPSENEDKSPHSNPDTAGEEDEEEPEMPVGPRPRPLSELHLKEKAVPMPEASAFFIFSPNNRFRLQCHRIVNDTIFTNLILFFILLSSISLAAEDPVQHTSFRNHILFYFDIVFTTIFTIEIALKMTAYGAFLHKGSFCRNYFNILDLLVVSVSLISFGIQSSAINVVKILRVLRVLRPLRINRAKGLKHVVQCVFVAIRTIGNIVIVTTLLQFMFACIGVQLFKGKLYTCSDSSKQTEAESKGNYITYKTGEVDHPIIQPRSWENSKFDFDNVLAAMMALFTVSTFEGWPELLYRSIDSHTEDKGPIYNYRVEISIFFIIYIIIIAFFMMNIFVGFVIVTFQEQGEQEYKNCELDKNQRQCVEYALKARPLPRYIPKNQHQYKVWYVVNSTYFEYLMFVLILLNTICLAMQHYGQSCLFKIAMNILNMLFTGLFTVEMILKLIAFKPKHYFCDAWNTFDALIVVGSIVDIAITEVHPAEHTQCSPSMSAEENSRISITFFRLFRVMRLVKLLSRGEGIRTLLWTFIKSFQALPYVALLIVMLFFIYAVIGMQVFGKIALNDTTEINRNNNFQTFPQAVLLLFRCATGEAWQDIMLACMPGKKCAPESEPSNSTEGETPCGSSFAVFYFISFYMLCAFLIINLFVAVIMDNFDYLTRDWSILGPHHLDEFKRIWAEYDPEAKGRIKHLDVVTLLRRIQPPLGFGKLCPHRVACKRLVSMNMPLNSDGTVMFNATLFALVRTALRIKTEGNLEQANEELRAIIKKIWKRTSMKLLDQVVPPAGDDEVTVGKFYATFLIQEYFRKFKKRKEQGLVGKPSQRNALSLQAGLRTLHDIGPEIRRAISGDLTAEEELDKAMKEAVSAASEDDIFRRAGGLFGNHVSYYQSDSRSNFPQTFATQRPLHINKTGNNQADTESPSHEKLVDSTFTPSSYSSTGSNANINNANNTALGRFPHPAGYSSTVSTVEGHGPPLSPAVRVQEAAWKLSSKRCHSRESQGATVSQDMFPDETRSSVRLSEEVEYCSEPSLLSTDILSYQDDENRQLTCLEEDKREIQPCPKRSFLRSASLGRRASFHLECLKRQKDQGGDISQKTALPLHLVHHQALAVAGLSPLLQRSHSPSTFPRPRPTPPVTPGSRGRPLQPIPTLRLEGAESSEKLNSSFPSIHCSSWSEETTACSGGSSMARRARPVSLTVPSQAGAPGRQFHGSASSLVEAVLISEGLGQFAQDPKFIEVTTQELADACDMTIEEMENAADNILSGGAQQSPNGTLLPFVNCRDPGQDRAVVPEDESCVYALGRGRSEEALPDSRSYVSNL
T1 sequence (P54290 25-944 partner limits assumed, other chains not shown): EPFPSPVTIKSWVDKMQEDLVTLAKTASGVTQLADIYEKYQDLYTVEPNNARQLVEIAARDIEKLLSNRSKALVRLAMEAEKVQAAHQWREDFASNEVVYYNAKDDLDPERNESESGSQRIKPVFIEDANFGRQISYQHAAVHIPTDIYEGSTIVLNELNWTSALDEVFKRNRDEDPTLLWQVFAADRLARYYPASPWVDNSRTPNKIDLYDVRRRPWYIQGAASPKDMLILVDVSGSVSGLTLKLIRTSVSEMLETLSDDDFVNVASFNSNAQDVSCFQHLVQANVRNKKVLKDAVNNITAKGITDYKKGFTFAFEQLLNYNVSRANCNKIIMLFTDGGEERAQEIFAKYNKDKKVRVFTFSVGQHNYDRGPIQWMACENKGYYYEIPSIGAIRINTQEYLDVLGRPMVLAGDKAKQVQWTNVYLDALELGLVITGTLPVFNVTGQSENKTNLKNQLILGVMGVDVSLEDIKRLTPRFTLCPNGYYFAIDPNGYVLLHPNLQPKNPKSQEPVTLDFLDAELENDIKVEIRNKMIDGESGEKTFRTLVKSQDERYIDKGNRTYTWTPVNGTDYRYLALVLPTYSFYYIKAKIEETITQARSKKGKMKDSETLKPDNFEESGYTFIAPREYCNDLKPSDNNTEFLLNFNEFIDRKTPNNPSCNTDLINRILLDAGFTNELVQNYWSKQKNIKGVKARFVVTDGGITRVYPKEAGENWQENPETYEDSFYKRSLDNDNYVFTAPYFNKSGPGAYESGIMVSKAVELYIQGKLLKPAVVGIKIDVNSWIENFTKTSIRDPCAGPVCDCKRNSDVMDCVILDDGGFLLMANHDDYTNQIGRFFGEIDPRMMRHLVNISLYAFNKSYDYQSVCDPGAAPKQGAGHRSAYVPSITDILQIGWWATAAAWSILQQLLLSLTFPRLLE
T1 sequence (P54290 945-1091 partner limits assumed, other chains not shown): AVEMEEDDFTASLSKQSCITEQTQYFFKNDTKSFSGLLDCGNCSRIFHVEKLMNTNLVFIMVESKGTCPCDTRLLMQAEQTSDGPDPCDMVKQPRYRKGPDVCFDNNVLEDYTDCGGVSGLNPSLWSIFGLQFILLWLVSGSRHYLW
The experiment in a line: [3H]-Nitrendipine binding assay (affinity for calcium channels). The settings on record: rat cardiac microsomes; 0.5 nM [3H]-nitrendipine, 60 min, 25° C. Here is the method: [^3 H]-Nitrendipine binding assay was carried out according to the method described by G. T. Bolger, et al., Biochem. Biophys. Res. Comm., 104, 1604-1609, (1982). The reaction mixture contained rat cardiac microsomes (source of Ca^2+ channels), 0.5 nM [^3 H]-nitrendipine with or without potential displacer in Tris buffer. The mixture was incubated for 60 minutes at 25° C. and subsequently terminated by rapid filtration through a glass fiber-filter. Membrane-bound [^3 H]-nitrendipine trapped in the filter was quantitated by scintillation counting. The inhibitory concentration (IC50) of potential displacer which gives 50% displacement of the total specifically bound [^3 H]-nitrendipine is presented as a measure of the affinity of such compound for the Ca^2+ channel.

The test system of a further assay is guinea pig left atria. Nature of the assay: Positive inotropic effect in guinea pig left atria. The settings on record: Cavia porcellus; for EC50: concentration that increases developed tension (DT) by 50% above the control DT, left atria paced at 2 Hz, 37° C.; for Emax: ratio of the maximum effect of the test compound to that of Bay K8644, read-out: Intrinsic Activity. The method, then: Guinea pigs are killed by cervical dislocation. The left atria are removed and mounted at 1 gm resting tension in tissue baths containing oxygenated Krebs bicarbonate solution which is kept at 37° C. The left atria are electrically paced at 2 Hz with square wave pulses of 1 msec duration. The voltage is set at 1.5×threshold level.
After a one hour equilibration period, control values for developed tension (DT, gm) are recorded. Test compounds are then added to the baths, in a cumulative manner to a maximum concentration of 10^-4, to obtain a concentration-response curve. Treatment values of DT are obtained after the drug effect has reached a plateau and the exposure time for each concentration is 5-8 minutes. Percent change of the treatment value from the control value is calculated at each concentration of the test compound.

With `COC(=O)C1=C(C)NC(C)=C([N+](=O)[O-])C1c1ccoc1CCCCCN1CCN(c2ccccc2OC)CC1` (centres unmarked) [Example 1, 1,4-Dihydro-4-(2-{5-[4-(2-methoxyphenyl)-1-piperazinyl]pentyl}-3-furanyl)-2,6-dimethyl-5-nitro-3-pyridinecarboxylic acid, methyl ester], the IC50 – broadly, the midpoint of a concentration-inhibition curve – was determined as 130 nM on alpha1-adrenoceptor and 600 nM on Ca^2+ channel. Moreover, the EC50 in the assay on guinea pig left atria is 5000 nM. In addition, in the assay on guinea pig left atria, the Emax was found to be 188%.
On the same counts, the results for `COC(=O)C1=C(C)NC(C)=C([N+](=O)[O-])C1c1ccoc1CCCCCN1CCN(C(=O)c2ccco2)CC1` (centres unmarked) [Example 2] are 1900 nM, 1500 nM, 96000 nM and 144%.
On the same counts, the results for `COC(=O)C1=C(C)NC(C)=C([N+](=O)[O-])C1c1ccccc1S(=O)(=O)CCCCN1CCN(c2ccccc2OC)CC1` (centres unmarked) [Example 3] are 63 nM, 240 nM, 1000 nM and 89%.
On to `COC(=O)C1=C(C)NC(C)=C([N+](=O)[O-])C1c1ccccc1[S+]([O-])CCCCN1CCN(c2ccccc2OC)CC1` (centres unmarked) [Example 4], for which the IC50 at alpha1-adrenoceptor was found to be 20 nM; at Ca^2+ channel it was 890 nM. The Emax with guinea pig left atria stood at 43%.
Regarding `COC(=O)C1=C(C)NC(C)=C([N+](=O)[O-])C1c1ccccc1OCCCCCN1CCN(C(=O)c2ccco2)CC1` (centres unmarked) [Example 5], the IC50 at alpha1-adrenoceptor was 2200 nM; on Ca^2+ channel, 680 nM. Further, the EC50 in the assay on guinea pig left atria is 3000 nM. Besides, the Emax in the assay with guinea pig left atria stood at 269%.
`COC(=O)C1=C(C)NC(C)=C([N+](=O)[O-])C1c1ccccc1OCCCCCN1CCC(c2ccccc2)CC1` (centres unmarked) [Example 6] yielded an IC50 at alpha1-adrenoceptor of 900 nM. Further, on Ca^2+ channel, the IC50 turned out to be 360 nM. In the assay with guinea pig left atria, the EC50 amounted to 2000 nM and the Emax amounted to 207%.
On the same counts, the results for `COC(=O)C1=C(C)NC(C)=C([N+](=O)[O-])C1c1ccccc1OCCCCCN1CCN(c2ccc(Cl)nn2)CC1` (centres unmarked) [Example 7] are 1900 nM, 650 nM, 12000 nM and 149%.
The corresponding values for `COC(=O)C1=C(C)NC(C)=C([N+](=O)[O-])C1c1ccccc1OCCCCCN1CCN(c2ccc(OC(C)C)nn2)CC1` (centres unmarked) [Example 8] are 15000 nM, 580 nM, 15000 nM and 113%.
On the same counts, the results for `COC(=O)C1=C(C)NC(C)=C([N+](=O)[O-])C1c1ccccc1OCCCCCN1CCN(C(=O)C2COc3ccccc3O2)CC1` (centres unmarked) [Example 9] are 5200 nM, 950 nM, 53000 nM and 62%.
On to `COC(=O)C1=C(C)NC(C)=C([N+](=O)[O-])C1c1ccccc1OCCCCCN1CCN(c2cnccn2)CC1` (centres unmarked) [Example 10], for which the IC50 at alpha1-adrenoceptor came out at 7200 nM. The IC50 at Ca^2+ channel was determined as 1200 nM. Further, in the assay with guinea pig left atria, the EC50 was found to be 2800 nM and the Emax turned out to be 55%.
The corresponding values for `CCCOc1cc(N2CCN(CCCCCOc3ccccc3C3C(C(=O)OC)=C(C)NC(C)=C3[N+](=O)[O-])CC2)ncn1` (centres unmarked) [Example 11] are 5300 nM, 360 nM, 43000 nM and 68%.
The corresponding values for `COc1ccccc1N1CCN(CCCCOC(=O)C2=C(C)NC(C)=C([N+](=O)[O-])C2c2cccc3nonc23)CC1` (centres unmarked) [Example 51, 4-(4-Benzofurazanyl)-1,4-dihydro-2,6-dimethyl-5-nitro-3-pyridinecarboxylicacid, {4-[4-(2-methoxyphenyl)-1-piperazinyl]butyl} ester] are 120 nM, 110 nM, 11000 nM and 175%.
In the case of `COc1ccccc1N1CCN(CCCCOC(=O)C2=C(C)NC(C)=C([N+](=O)[O-])C2c2cccnc2)CC1` (centres unmarked) [Example 52], the IC50 at alpha1-adrenoceptor was 52 nM; at Ca^2+ channel, 3900 nM. In the assay on guinea pig left atria, the Emax worked out at 35%.
